# Data published in patent US20060134008A1, “Compositions and methods for pulmonary conditions” (priority 2004, published 2006).
# Columns and labels:
# [1] = in average [70-kg] adult; cited from earlier work
# guinea pigs [2] = assay: Methacholine-induced bronchoconstriction (PenH), methacholine 20-30 minutes after isoflurane anesthesia and airway instillation; conditions: for block of methacholine and lidocaine induced bronchoconstriction (PenH): instilled with lidocaine, methacholine within 20-30 minutes of terminating anesthesia, FIG. 4; for PenH after methacholine by nebulization: methacholine 20-30 minutes following treatment, 200-300 μL instilled
# Procedure: Guinea pigs were anesthetized with isoflurane and one of the following treatments instilled into the airway using a Penn Century device designed for liquid instillation: a) saline; b) lidocaine; c) IpBr or d) lidocaine and IpBr. The volume of liquid instilled was between 200-300 μL for each treatment group. Between 20 and 30 minutes following treatment all animals received methacholine by nebulization.
# [3] = test system: guinea pigs immunized against ovalbumin
# guinea pigs [4] = assay: Methacholine-induced bronchoconstriction (PenH), methacholine approximately 10-15 minutes after isoflurane anesthesia and treatment; conditions: FIG. 5
# Procedure: A second study was conducted to evaluate the ability of IpBr and epinephrine to reduce lidocaine/methacholine induced bronchoconstriction earlier relative to the termination of isoflurane. […] Guinea pigs were anesthetized with isoflurane and treated with: a) saline; b) lidocaine; c) lidocaine plus epinephrine; or d) lidocaine plus IpBr. Approximately 10-15 minutes later each guinea pig was exposed to methacholine by nebulization.
# [5] = given with lidocaine, methacholine approximately 10-15 minutes later
smiles,measurement,setting,value
CCCCN1CCCCC1C(=O)Nc1c(C)cccc1C (stereo not shown) [Bupivacaine],Maximum one-time dose (volume),[1],(50 mL in average [70-kg] adult)
"CC(C)[N+]1(C)[C@@H]2CC[C@H]1CC(OC(=O)C(CO)c1ccccc1)C2.[Br-] (stereo partly shown) [IpBr, ipratropium bromide]",block of methacholine and lidocaine induced bronchoconstriction (PenH),guinea pigs [2],blocks methacholine-induced bronchoconstriction out to 30 minutes of treatment
same,PenH after methacholine by nebulization,guinea pigs [2]; FIG. 3,effective in blocking methacholine induced bronchoconstriction
same,effect of concomitant administration on lidocaine-induced increase in PenH,"[3]; co-administered with lidocaine, FIG. 2, PenH similar to saline only",blocked the effect of lidocaine on PenH
same,effect on PenH (in words),guinea pigs [4]; [5],greatly reduce PenH back to baseline levels
same,reduction of PenH relative to animals receiving only lidocaine,guinea pigs [4]; [5],approximately 90%
"CCN(CC)CC(=O)Nc1c(C)cccc1C [Lidocaine, lidocaine]",effect on the bronchoconstrictive action of methacholine,guinea pigs [2]; 15 and 30 minutes following termination of isoflurane anesthesia,enhanced the bronchoconstrictive action of methacholine
same,block of methacholine and lidocaine induced bronchoconstriction (PenH),guinea pigs [2],no differences in PenH
same,PenH after methacholine by nebulization,guinea pigs [2]; FIG. 3,increase PenH relative to guinea pigs receiving only saline
same,magnitude of the lidocaine-induced PenH increase,"[3]; 1.25 or 2.5 mg instilled, FIG. 1",dose-dependent
same,PenH relative to baseline,guinea pigs [4]; methacholine approximately 10-15 minutes after treatment,increase in PenH over baseline
same,Maximum one-time dose (volume),[1],(30 mL in average [70-kg] adult)
Cc1cccc(C)c1NC(=O)C1CCCCN1C (stereo not shown) [Mepivacaine],Maximum one-time dose (volume),[1],(30 mL in average [70-kg] adult)
CNC[C@H](O)c1ccc(O)c(O)c1 [epinephrine],block of methacholine and lidocaine induced bronchoconstriction (PenH),guinea pigs [2],"but not epinephrine, blocks methacholine-induced bronchoconstriction"
same,effect on PenH (in words),guinea pigs [4]; [5],reduced PenH to levels similar to those observed in saline treated animals
FC(F)OC(Cl)C(F)(F)F (stereo not shown) [isoflurane],time for which the bronchoconstrictive effects of methacholine are reduced,"guinea pigs [2]; inhaled anesthetic, FIG. 3",20 to 30 min
